Measurements as given in PubChem BioAssay (NCI).
Where “and” joins values, the source holds several entries; their conditions need not be identical. Equal entries are not always repeated.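 Grown in 96-well plates, cells were treated for 48 hours with each compound at five concentrations. Insufficient inhibition: endpoint recorded as highest concentration tested. GI50 marks 50% less growth. At the TGI there is no net growth.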

Key:
Assay in all cases: NCI anticancer screen, dose series, 48 h
CAKI-1 renal = tested on: CAKI-1 renal
HOP-62 NSCLC = tested on: HOP-62 NSCLC
A549 NSCLC = tested on: A549 NSCLC
KM12 colon = tested on: KM12 colon
SK-MEL-5 melanoma = tested on: SK-MEL-5 melanoma
SK-MEL-2 melanoma = tested on: SK-MEL-2 melanoma
SNB-75 CNS = tested on: SNB-75 CNS
SN12C renal = tested on: SN12C renal
MOLT-4 leukemia = tested on: MOLT-4 leukemia
BT-549 breast = tested on: BT-549 breast

Row | Structure (SMILES) | TGI (CAKI-1 renal) | TGI (HOP-62 NSCLC) | TGI (A549 NSCLC) | TGI (KM12 colon) | TGI (SK-MEL-5 melanoma) | TGI (SK-MEL-2 melanoma) | TGI (SNB-75 CNS) | TGI (SN12C renal) | TGI (MOLT-4 leukemia) | TGI (BT-549 breast) | GI50 (CAKI-1 renal) | GI50 (HOP-62 NSCLC) | GI50 (A549 NSCLC) | GI50 (SK-MEL-5 melanoma) | GI50 (SK-MEL-2 melanoma) | GI50 (SNB-75 CNS) | GI50 (SN12C renal) | GI50 (MOLT-4 leukemia) | GI50 (KM12 colon) | GI50 (BT-549 breast)
1 | O=C1c2cc([N+](=O)[O-])cc3cc([N+](=O)[O-])cc(c23)C(=O)N1CCCNCCNCCCN1C(=O)c2cc([N+](=O)[O-])cc3cc([N+](=O)[O-])cc(c23)C1=O | 8.4 µM | 3.07 µM | 3.6 µM | 2.51 µM | 1.97 µM | 0.323 µM | 2.57 µM | 2.2 µM | 1.41 µM | 5.51 µM |  |  |  |  |  |  |  |  |  | 
2 | OCC1OC(n2cnc3c2NC=NC[C@H]3O)CC1O (some centres not stated) | 495 µM and > 588 µM | 471 µM and > 588 µM | 461 µM and > 588 µM | 500 µM | 499 µM and > 588 µM | 500 µM and > 588 µM | 498 µM and > 588 µM | 500 µM and > 588 µM | 469 µM and > 588 µM | > 500 µM | 351000 nM and > 588000 nM | > 588 µM | 412 µM and > 588 µM | > 588000 nM | > 588 µM | > 588000 nM | > 588000 nM | > 588000 nM |  | 
3 | COC(=O)/C(=N\NC(=S)NN)C(C(=O)OC)C(=O)C(=O)Nc1cccc(C(F)(F)F)c1 (configuration not stated) | > 100 µM | > 100 µM | > 100 µM | > 100 µM | > 100 µM | > 100 µM | > 100 µM | > 100 µM |  | > 100 µM |  |  |  |  |  |  |  |  |  | 
4 | COc1ccc(OC)c(/C=C2\COc3ccc(O)c(O)c3C2=O)c1 | 5.73 µM | 24.5 µM | 11.9 µM | 3.92 µM | 3.28 µM | 8.44 µM | 18.3 µM | 11.7 µM | > 100 µM | 6.71 µM | 2080 nM | 8.63 µM | 3.07 µM | 1750 nM | 2.84 µM | 3720 nM | 2550 nM | 1970 nM | 1730 nM | 1710 nM
5 | COc1cc(C2CC(c3ccccc3)=NN2C(C)=O)cc(OC)c1OC (configuration not stated) | > 100 µM | > 100 µM | > 100 µM | > 100 µM | > 100 µM | > 100 µM | 13.3 µM | > 100 µM | > 100 µM | > 100 µM | 2450 nM | 5.59 µM | 6.63 µM | 2870 nM | 4.02 µM | 1740 nM | 5230 nM | 5500 nM | 1420 nM | 6370 nM
6 | O=C(O)c1ccccc1-c1ccccc1C(=O)Nc1ccc2c(c1)[nH]c(=O)c1ccccc12 | > 100 µM | > 100 µM | > 100 µM | > 100 µM | > 100 µM | > 100 µM | > 100 µM | > 100 µM | > 100 µM | > 100 µM |  |  |  |  |  |  |  |  |  | 
7 | O=C(CN1C(=O)S/C(=C\C(Cl)=C\c2ccccc2)C1=O)NCCc1ccc(O)cc1 | 3.76 µM | 15.7 µM | > 100 µM | 3.43 µM | 3.4 µM | 7.74 µM | 6.64 µM | 9.79 µM | > 100 µM | 4.9 µM | 1780 nM | 3.34 µM | 3.1 µM | 1800 nM | 2.64 µM | 1050 nM | 2340 nM | 2380 nM | 1700 nM | 2030 nM
8 | CC1OC(n2c3ccccc3c3c4c(c5c6ccccc6[nH]c5c32)C(=O)N(CCN2CCOCC2)C4=O)CC(O)C1O (configuration not stated) | 6.37 µM | 8.26 µM | 10.4 µM | 10.5 µM | 6.29 µM | 22 µM | 5.87 µM | 7.47 µM | 9.93 µM | 12.1 µM | 1440 nM | 1.52 µM | 2.51 µM | 1590 nM | 10.6 µM | 729 nM | 1750 nM | 1200 nM | 2640 nM | 2830 nM
